These results are taken from patent US7563781B2, “Triazolopyrimidine derivatives” (Janssen Pharmaceutica NV, priority 2006, dated 2009).

Test [1] addresses T1, Focal Adhesion Kinase (full-length Flag-tagged human FAK) (Homo sapiens, UniProt Q05397).
T1 construct: a purified recombinant full-length Flag-tagged human FAK protein; Flag; made in house; host or cells: baculovirus infected insect cells
Put plainly: in vitro FAK ELISA kinase assay. Format: biochemical. Conditions: compound 10 uM; ATP 2 uM; read-out: FAK % Inhib ave: 10 uM. Here is the method: Compound effects on the tyrosine kinase activity of Focal Adhesion Kinase were assessed with an in vitro FAK ELISA kinase assay. This assay measures the incorporation of phosphate from ATP into a FAK substrate protein using an antibody specific for phospho-tyrosine.
500 ng of FAKsubstrate, a purified recombinant fusion protein of GST and a 73 amino acid region surrounding the Tyr397 human FAK autophosphorylation site, was coated in a high-protein binding polystyrene 96 well plate overnight in a buffer containing 50 mM Hepes, pH 7.5, 150 mM NaCl, 0.1 mM Na-oVO4, 0.1 mM NaF and 1 protease inhibitor tablet/10 mL (Complete Mini-EDTA-free, Roche). The next day this solution was removed and the wells were incubated with 0.2% BSA in 50 mM Hepes, pH 7.5, 150 mM NaCl, 0.2 mM PMSF for 1 hour at 30° C. to block unoccupied protein binding sites. The wells were then washed with 50 mM Hepes, pH 7.5, 150 mM NaCl, 0.1% Tween 20. The kinase reaction was performed with 25 ng/well of FAK enzyme (a purified recombinant full-length Flag-tagged human FAK protein made in baculovirus infected insect cells) in 0.1 mL of a buffer containing 25 mM Hepes, pH 7.5, 5 mM MgCl2, 0.5 mM MnCl2, 10 uM NaoVO4, 0.2 mM PMSF. Compounds were added from 30% DMSO stock solutions for a screening concentration of 10 uM or IC50 determinations from 50 uM in half-log dilutions. The reaction is initiated with addition of ATP to a final concentration of 2 uM and incubated at 30° C. for 1 hour. Following the kinase reaction step, the wells were washed and incubated with 50 ng of Horseradish Peroxidase conjugated anti-phosphotyrosine antibody (PT-66 HRP, Sigma) in 0.1 mL wash buffer for 1 hour at 30° C. Wells were then washed and 0.1 mL HRP substrate, Tetra-methyl Benzidine (Sigma) was added and the color reaction allowed to proceed for 2-3 minutes followed by the addition of 0.1 mL of 1N H2SO4 to stop the HRP reaction. Percent inhibition of FAK kinase activity was calculated by comparing compound containing wells to wells treated with diluent only. Background was subtracted from all wells and was defined as the activity of FAK using 500 ng/well of BSA as a substrate. IC50 values were obtained using Prism data analysis software.

Test [2] has as its target T2, CAK complex (human Cdk7, human Cyclin H, MAT-1) (Homo sapiens, UniProt P50613).
T2 construct: made in house; host or cells: SF-900 insect cells co-infected with Flag-Cdk7 and Bab-Cyclin H baculoviruses
Put plainly: in vitro time-resolved-fluorescence assay for the CAK kinase activity. Type of test: biochemical. Conditions: compound 20 uM; read-out: CAK % inhib; 20 uM. The source says: Cyclin Dependent Kinase Activating Kinase (CAK) is a complex of proteins that phosphorylates a well-conserved threonine (Thr) residue in all mammalian cyclin dependent kinases (cdks). The CAK complex can also phosphorylate several components of the transcriptional machinery, such as the C-terminal domain (CTD) of RNA polymerase II in the TFIIH transcription complex. The CAK complex localizes to the nucleus, and is composed of three proteins: Cdk7, Cyclin H, and MAT-1. The exemplified method teaches the cloning and expression CAK subunits, particularly a human Cdk7 and a human Cyclin H. The method of the present invention exemplified herein is equally applicable to the cloning and expression of any CAK subunit, such as variants, structural or functional polymorphisms of the human Cdk7 or the human Cyclin H, or their orthologs in other animals such as rat, mouse, pig, dog and monkey.
The CAK complex was purified from co-infected SF-900 insect cells at 48 hours post infection by batch immunoaffinity purification. The infected cells were pelleted by centrifugation and lysed in 1/10 of the culture volume in a solution containing 50 mM Hepes pH 7.5, 10 mM MgCl2, 1 mM DTT, 10 mM Beta-Glycerol phosphate, 20 uM Na-oVO4, 0.2 mM PMSF and 1 μg/mL each of leupeptin, aprotinin, and pepstatin on ice. Cells were mechanically lysed by trituration through a 22-gauge needle followed by sonication or alternately by nitrogen cavitation. The lysed cells were centrifuged at 50,000×G for 1 hour at 4° C. to remove debris and the supernatant was applied to 1/10 volume of prewashed Flag-M2 immunoaffinity resin (Sigma). The CAK complex, by nature of the Flag tagged Cdk7 protein, was allowed to bind to the Flag antibody of the resin overnight at 4° C. with gentle rocking. The resin was washed 4 times with 5 resin volumes of lysis buffer and the bound proteins were eluted by competition with 0.5 mg/mL Flag peptide ([…], American Peptide Co, Inc., SEQ ID NO: 16) in a total of 2 resin volumes. To remove the Flag peptide, the eluted material was applied to PD-10 gel filtration columns (Pharmacia) under conditions recommended by the manufacturer.
Measurement of CAK kinase activity was accomplished using an antibody methodology in which a Europium labeled antibody binds preferentially to serine phosphorylated GST-CTD substrate. The long-lived europium label fluorescence allows a greater signal-to-noise ratio due to the delay in reading the emission wavelength, thereby eliminating signals from immediate fluorescence and fluorescent pharmaceutical screening compounds.
The time-resolved-fluorescence assay for the CAK kinase activity is performed as follows. In a well of a black glutathione coated 96 well micro titer plate (Pierce Chemical, No. 15360), the following reagents were added: 1) 25 ul substrate solution containing 500 ng purified GST-CTD in a buffer having 50 mM Hepes pH 7.5, 10 mM MgCl2, 1 mM DTT, 0.2 mM PMSF, 40 uM Na-oVO4, and 22 uM ATP (as a background control, the buffer, including ATP but not substrate was added); 2) 2.5 ul of screening compounds in a diluent containing 30% DMSO/25 mM Hepes pH7.5 (As a control, the diluent only was added. Typically the final concentration of compound is 1 uM); and 3) 250 ng CAK enzyme complex in enzyme buffer containing 25 ul of 50 mM Hepes pH 7.5, 10 mM MgCl2, 1 mM DTT, 0.2 mM PMSF, and 40 uM Na-oVO4. The micro titer plate was shaken for 2 minutes on a titer plate shaker and allowed to incubate at 30° C. for 20 minutes.
Subsequently, Kinase Stop Solution (75 mM EDTA, 0.2 mM PMSF, 1 mM DTT, 120 uM Na oVO4 in PBS) was added (50 ul/well). The plate was shaken for 2 minutes and incubated overnight at room temperature to allow substrate binding to the wells. The plate contents were flicked out, and the wells of the plate were washed 4 times with 350 ul of wash buffer (Delphia wash buffer, Perkin-Elmer, Inc.). The plate was tapped dry. […]

T1 sequence (Q05397 whole entry): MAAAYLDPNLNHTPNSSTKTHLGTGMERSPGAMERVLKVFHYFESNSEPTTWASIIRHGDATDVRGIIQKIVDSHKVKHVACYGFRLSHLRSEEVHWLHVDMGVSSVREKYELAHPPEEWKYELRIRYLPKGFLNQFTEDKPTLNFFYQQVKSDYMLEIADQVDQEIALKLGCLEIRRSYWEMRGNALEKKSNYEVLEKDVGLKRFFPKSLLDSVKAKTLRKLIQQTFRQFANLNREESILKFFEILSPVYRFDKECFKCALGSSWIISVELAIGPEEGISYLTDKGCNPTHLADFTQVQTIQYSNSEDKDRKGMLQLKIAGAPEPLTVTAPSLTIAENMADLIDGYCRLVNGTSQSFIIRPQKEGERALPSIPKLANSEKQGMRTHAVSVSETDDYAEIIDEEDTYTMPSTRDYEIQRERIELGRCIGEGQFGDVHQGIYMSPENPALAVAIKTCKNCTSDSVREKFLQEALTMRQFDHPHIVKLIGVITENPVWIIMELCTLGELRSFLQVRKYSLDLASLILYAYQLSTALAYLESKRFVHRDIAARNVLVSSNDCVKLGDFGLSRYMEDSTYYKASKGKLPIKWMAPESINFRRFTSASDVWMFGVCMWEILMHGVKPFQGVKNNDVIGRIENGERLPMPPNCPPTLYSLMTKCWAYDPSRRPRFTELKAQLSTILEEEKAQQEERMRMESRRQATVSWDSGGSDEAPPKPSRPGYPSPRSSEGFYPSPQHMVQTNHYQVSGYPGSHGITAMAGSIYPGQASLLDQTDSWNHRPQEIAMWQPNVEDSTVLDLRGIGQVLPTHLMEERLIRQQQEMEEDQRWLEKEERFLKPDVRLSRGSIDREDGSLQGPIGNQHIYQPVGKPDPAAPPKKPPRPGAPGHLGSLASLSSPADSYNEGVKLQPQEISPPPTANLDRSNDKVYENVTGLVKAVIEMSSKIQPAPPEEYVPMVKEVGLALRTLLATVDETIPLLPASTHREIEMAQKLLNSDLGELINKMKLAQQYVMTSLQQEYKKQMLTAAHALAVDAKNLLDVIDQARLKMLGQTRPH
T2 sequence (P50613 with tags, fused parts or gaps): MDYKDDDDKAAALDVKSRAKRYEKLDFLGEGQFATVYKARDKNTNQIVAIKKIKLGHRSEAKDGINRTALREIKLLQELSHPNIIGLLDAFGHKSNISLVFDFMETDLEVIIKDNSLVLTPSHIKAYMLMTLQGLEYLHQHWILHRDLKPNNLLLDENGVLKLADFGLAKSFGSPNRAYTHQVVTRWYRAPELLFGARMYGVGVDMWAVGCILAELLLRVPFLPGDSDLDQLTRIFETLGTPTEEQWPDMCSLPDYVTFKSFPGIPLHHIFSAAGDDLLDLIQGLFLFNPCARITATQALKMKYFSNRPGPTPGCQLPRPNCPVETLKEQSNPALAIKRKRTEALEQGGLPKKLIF
T2 sequence (as listed by the source partner): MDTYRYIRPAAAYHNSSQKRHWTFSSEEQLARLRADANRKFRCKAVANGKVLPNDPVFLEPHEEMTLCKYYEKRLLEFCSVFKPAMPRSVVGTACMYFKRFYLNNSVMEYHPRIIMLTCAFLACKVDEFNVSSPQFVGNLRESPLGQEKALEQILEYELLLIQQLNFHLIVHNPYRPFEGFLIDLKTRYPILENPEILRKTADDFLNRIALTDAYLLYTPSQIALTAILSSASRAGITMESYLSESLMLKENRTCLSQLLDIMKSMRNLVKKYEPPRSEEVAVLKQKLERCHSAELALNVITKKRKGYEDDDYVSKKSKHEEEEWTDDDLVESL

For `CN(C)CC(O)COc1ccc(Nc2ncc3nnn(-c4ccc5c(c4)CCC5)c3n2)cc1` (centres unmarked) [Compound 1, 1-Dimethylamino-3-[4-(3-indan-5-yl-3H-[1,2,3]triazolo[4,5-d]pyrimidin-5-ylamino)-phenoxy]-propan-2-ol], in test [1], the inhibition at 10 µM was 93.6%. Further, the inhibition at 20 µM in test [2] was 102%.
With `COc1ccc(-n2nnc3cnc(Nc4ccc(OCC(O)CN(C)C)cc4)nc32)cc1OC` (centres unmarked) [Compound 3, 1-{4-[3-(3,4-Dimethoxy-phenyl)-3H-[1,2,3]triazolo[4,5-d]pyrimidin-5-ylamino]-phenoxy]-3-dimethylamino-propan-2-ol], the inhibition at 10 µM in test [1] stood at 53.2%.
The same measure, in the same setting: in the case of `CN(C)CCCOc1ccc(Nc2ncc3nnn(-c4ccc5c(c4)CCC5)c3n2)cc1` [Compound 4, [4-(3-Dimethylamino-propoxy)-phenyl]-(3-indan-5-yl-3H-[1,2,3]triazolo[4,5-d]pyrimidin-5-yl)-amine] it was 95%.
On to `CCCCCOc1ccc(Nc2ncc3nnn(-c4ccc5c(c4)CCC5)c3n2)cc1` [Compound 5, (3-Indan-5-yl-3H-[1,2,3]triazolo[4,5-d]pyrimidin-5-yl)-(4-pentyloxy-phenyl)-amine], for which the inhibition at 10 µM in test [1] is 12.4%. Besides, the inhibition at 20 µM in test [2] came out at 25.9%.
Consider `CC(C)(C)OC(=O)N1CCC(CNc2ncc3nnn(-c4ccc5c(c4)CCC5)c3n2)CC1` [Compound 6, 4-[(3-Indan-5-yl-3H-[1,2,3]triazolo[4,5-d]pyrimidin-5-ylamino)-methyl]-piperidine-1-carboxylic acid tert-butyl ester], for which the inhibition at 10 µM in test [1] stood at 73%. Further, the inhibition at 20 µM in test [2] was 28.9%.
The matching figures for `CN(C)c1ccc(/C=C/c2ccc(Nc3ncc4nnn(-c5ccc6c(c5)CCC6)c4n3)cc2)cc1` [Compound 7, {4-[2-(4-Dimethylamino-phenyl)-vinyl]-phenyl}-(3-indan-5-yl-3H-[1,2,3]triazolo[4,5-d]pyrimidin-5-yl)-amine]: -5% and 38.7%.
`CN(C)CC(O)COc1ccc(Nc2ncc3nnn(-c4ccccc4)c3n2)cc1` (centres unmarked) [Compound 8, 1-Dimethylamino-3-[4-(3-phenyl-3H-[1,2,3]triazolo[4,5-d]pyrimidin-5-ylamino)-phenoxy]-propan-2-ol]: the inhibition at 10 µM in test [1] came to 77.4%. The inhibition at 20 µM in test [2] stood at 92.2%.
For `CN(C)CC(O)COc1ccc(Nc2ncc3nnn(C4CCCCC4)c3n2)cc1` (centres unmarked) [Compound 9, 1-[4-(3-Cyclohexyl-3H-[1,2,3]triazolo[4,5-d]pyrimidin-5-ylamino)-phenoxy]-3-dimethylamino-propan-2-ol], in that order: 23% and 85.9%.
For `CN(C)CC(O)COc1ccc(Nc2ncc3nnn(-c4cccc(C#N)c4)c3n2)cc1` (centres unmarked) [Compound 10, 3-{5-[4-(3-Dimethylamino-2-hydroxy-propoxy)-phenylamino]-[1,2,3]triazolo[4,5-d]pyrimidin-3-yl]-benzonitrile], in that order: 64.7% and 11.5%.
For `CN(C)CC(O)COc1ccc(Nc2ncc3nnn(-c4ccc(F)c(F)c4)c3n2)cc1` (centres unmarked) [Compound 11, 1-{4-[3-(3,4-Difluoro-phenyl)-3H-[1,2,3]triazolo[4,5-d]pyrimidin-5-ylamino]-phenoxy}-3-dimethylamino-propan-2-ol], in that order: 65.3% and 56%.
In the case of `CN(C)CC(O)COc1ccc(Nc2ncc3nnn(-c4ccc5ccccc5c4)c3n2)cc1` (centres unmarked) [Compound 12, 1-Dimethylamino-3-[4-(3-naphthalen-2-yl-3H-[1,2,3]triazolo[4,5-d]pyrimidin-5-ylamino)-phenoxy]-propan-2-ol], the inhibition at 10 µM in test [1] is 82.9%. The inhibition at 20 µM in test [2] is 92.4%.
For `CN(C)CC(O)COc1ccc(Nc2ncc3nnn(-c4ccc5ncccc5c4)c3n2)cc1` (centres unmarked) [Compound 13, 1-Dimethylamino-3-[4-(3-quinolin-6-yl-3H-[1,2,3]triazolo[4,5-d]pyrimidin-5-ylamino)-phenoxy]-propan-2-ol], in that order: 24.4% and 72.6%.
The matching figures for `CN(C)CC(O)COc1ccc(Nc2ncc3nnn(-c4ccc5ncsc5c4)c3n2)cc1` (centres unmarked) [Compound 14, 1-[4-(3-Benzothiazol-6-yl-3H-[1,2,3]triazolo[4,5-d]pyrimidin-5-ylamino)-phenoxy]-3-dimethylamino-propan-2-ol]: 76.8% and 42.2%.
The matching figures for `CN(C)CC(O)COc1ccc(Nc2ncc3nnn(-c4ccc(C5CCCCC5)cc4)c3n2)cc1` (centres unmarked) [Compound 15, 1-{4-[3-(4-Cyclohexyl-phenyl)-3H-[1,2,3]triazolo[4,5-d]pyrimidin-5-ylamino]-phenoxy}-3-dimethylamino-propan-2-ol]: 80.5% and 76%.
Turning to `CN(C)CC(O)COc1ccc(Nc2ncc3nnn(-c4ccc(N5CCOCC5)cc4)c3n2)cc1` (centres unmarked) [Compound 16, 1-Dimethylamino-3-{4-[3-(4-morpholin-4-yl-phenyl)-3H-[1,2,3]triazolo[4,5-d]pyrimidin-5-ylamino]-phenoxy}-propan-2-ol], the inhibition at 10 µM in test [1] came out at 50.5%. Also, the inhibition at 20 µM in test [2] amounted to 83.1%.
Take `CCCCNS(=O)(=O)c1cccc(-n2nnc3cnc(Nc4ccc(OCC(O)CN(C)C)cc4)nc32)c1` (centres unmarked) [Compound 35, N-Butyl-3-{5-[4-(3-dimethylamino-2-hydroxy-propoxy)-phenylamino]-[1,2,3]triazolo[4,5-d]pyrimidin-3-yl}-benzene-sulfonamide]: in test [1], the inhibition at 10 µM was 91.6%.
